Reference: patent US6514911B1, “Substituted oxadiazines useful as pesticides” (Uniroyal Chemical Company, Inc., priority 2002, dated 2003)

What was measured:
Type in all cases: in vivo
[1] = system: velvetleaf (Abutilon theophrasti Medik.) (VL); test: Preemergence herbicide test, soil drench, velvetleaf; conditions: 10 lbs/A (11.2 kg/ha) soil drench, two weeks after treatment, vs untreated checks; for pest or weed control at 11208.5 g/ha: Abutilon theophrasti, 336 h, read-out: Percent Weed Control VL
Description: (§1) To illustrate the effectiveness of the previously described substituted oxadiazines of this invention as preemergence herbicides, 300 mg of the chemical was dissolved in a composition comprising 10 mL acetone to which 30 mg of tile emulsifying agent, ethoxylated sorbitan monolaurate, was added. The solution was diluted to 100 mL with distilled water. Ten milliliters of this 3000 ppm solution was diluted to 250 ppm with distilled water. The chemical was applied at the rate of 10 pounds/acre (11.2 kg/ha) by drenchings 46 mL of the 250 ppm solution on the surface of soil in 4½ inch (11.25 cm) plastic pots wherein seeds of the following weeds had been planted: velvetleaf (Abutilon theophrasti Medik.) (VL), The percent control of the weeds compared to untreated checks was determined two weeks after treatment. TABLE 1 summarizes the results achieved with compounds formulated as indicated above, and the data clearly indicate the good to excellent herbicidal efficacy of compositions of this invention.

[2] = system: jimsonweed (Datura stramonium L.) (JW); test: Preemergence herbicide test, soil drench, jimsonweed; conditions: 10 lbs/A (11.2 kg/ha) soil drench, two weeks after treatment, vs untreated checks
Description: as §1, with “jimsonweed (Datura stramonium L.) (JW),” for “velvetleaf (Abutilon theophrasti Medik.) (VL),”

[3] = system: tall morningglory (Ipomoea purpurea (L.) Roth) (TM); test: Preemergence herbicide test, soil drench, tall morningglory; conditions: 10 lbs/A (11.2 kg/ha) soil drench, two weeks after treatment, vs untreated checks; for pest or weed control at 11208.5 g/ha: Ipomoea, 336 h, read-out: Percent Weed Control TM
Description: as §1, with “tall morningglory (Ipomoea purpurea (L.) Roth) (TM),” for “velvetleaf (Abutilon theophrasti Medik.) (VL),”

[4] = system: barnyardgrass (Echinochloa crus-galli (L.) Beauv.) (BG); test: Preemergence herbicide test, soil drench, barnyardgrass; conditions: 10 lbs/A (11.2 kg/ha) soil drench, two weeks after treatment, vs untreated checks; for pest or weed control at 11208.5 g/ha: Echinochloa crus-galli, 336 h, read-out: Percent Weed Control BG
Description: as §1, with “barnyardgrass (Echinochloa crus-galli (L.) Beauv.) (BG), and” for “velvetleaf (Abutilon theophrasti Medik.) (VL),”

[5] = system: switchgrass (Panicum virgahim L.) (SG); test: Preemergence herbicide test, soil drench, switchgrass; conditions: 10 lbs/A (11.2 kg/ha) soil drench, two weeks after treatment, vs untreated checks; for pest or weed control at 11208.5 g/ha: Panicum, 336 h, read-out: Percent Weed Control SG
Description: as §1, with “planted:” for “planted: velvetleaf (Abutilon theophrasti Medik.) (VL), The percent control of the weeds compared to untreated checks was determined two weeks after treatment. TABLE 1 summarizes the results achieved with compounds formulated as indicated above, and the data clearly indicate the good to excellent herbicidal efficacy of compositions of this invention.”
switchgrass (Panicum virgahim L.) (SG),
(§2) The percent control of the weeds compared to untreated checks was determined two weeks after treatment. TABLE 1 summarizes the results achieved with compounds formulated as indicated above, and the data clearly indicate the good to excellent herbicidal efficacy of compositions of this invention.

[6] = system: green foxtail (Setaria virdis (L.) Beauv.) (GF); test: Preemergence herbicide test, soil drench, green foxtail; conditions: 10 lbs/A (11.2 kg/ha) soil drench, two weeks after treatment, vs untreated checks; for pest or weed control at 11208.5 g/ha: Setaria, 336 h, read-out: Percent Weed Control GF
Description: as §1, with “41⁄2” for “4½”, “green foxtail (Setaria […].) Beauv.) (GF).” for “velvetleaf (Abutilon theophrasti Medik.) (VL),”

[7] = system: prickly sida (Sida spinosa L.) (PS); test: Preemergence herbicide test, soil drench, prickly sida; conditions: 10 lbs/A (11.2 kg/ha) soil drench, two weeks after treatment, vs untreated checks; for pest or weed control at 11208.5 g/ha: Sida spinosa, 336 h, read-out: Percent Weed Control PS
Description: To illustrate the effectiveness of the previously described substituted oxadiazines of this invention as preemergence herbicides, 300 mg of the chemical was dissolved in a composition comprising 10 mL acetone to which 30 mg of tile emulsifying agent, ethoxylated sorbitan monolaurate, was added. The solution was diluted to 100 mL with distilled water. Ten milliliters of this 3000 ppm solution was diluted to 250 ppm with distilled water. […]
prickly sida (Sida spinosa L.) (PS),
as §2

SMILES | pest or weed control at 11208.5 g/ha [1] [%] | Percent Weed Control JW [2] [%] | pest or weed control at 11208.5 g/ha [3] [%] | pest or weed control at 11208.5 g/ha [4] [%] | pest or weed control at 11208.5 g/ha [5] [%] | pest or weed control at 11208.5 g/ha [6] [%] | Percent Weed Control VL [1] [%] | Percent Weed Control TM [3] [%] | Percent Weed Control BG [4] [%] | Percent Weed Control SG [5] [%] | Percent Weed Control GF [6] [%] | pest or weed control at 11208.5 g/ha [7] [%] | Percent Weed Control PS [7] [%]
FC(F)(F)C1=NC(C(F)(F)F)(C(F)(F)F)N=C(c2ccc(Cl)cc2)O1 [Compound 5, 2-(4-chlorophenyl)-4,4,6-tris(trifluoromethyl)-4H-1,3,5-oxadiazine] | 100 | 100 | 100 | 100 | 100 | 100 |  |  |  |  |  |  | 
FC(F)(F)C1=NC(C(F)(F)F)(C(F)(F)F)N=C(c2ccccc2C(F)(F)F)O1 [Compound 6, 2,4,4-tris(trifluoromethyl)-6-{(2-trifluoromethyl)phenyl}-4H-1,3,5-oxadiazine] |  | 75 |  |  |  |  | 100 | 100 | 50 | 75 | 100 |  | 
FC(F)(F)C(F)(F)C1=NC(C(F)(F)F)(C(F)(F)F)N=C(c2ccccc2Cl)O1 [Compound 12, 2-(2-chlorophenyl)-6-(pentafluoroethyl)-4,4-bis(trifluoromethyl)-4H-1,3,5-oxadiazine] | 100 | 100 | 100 | 0 | 75 | 100 |  |  |  |  |  |  | 
FC(F)(F)c1cc(C2=NC(C(F)(F)F)(C(F)(F)F)N=C(C(F)(F)C(F)(F)F)O2)cc(C(F)(F)F)c1 [Compound 18, 2-{3,5-bis(trifluoromethyl)phenyl}-6-(pentafluoroethyl)-4,4-bis(trifluoromethyl)-4H-1,3,5-oxadiazine] | 100 |  | 100 | 100 | 100 | 100 |  |  |  |  |  | 100 | 
Fc1cc(F)cc(C2=NC(C(F)(F)F)(C(F)(F)F)N=C(C(F)(F)C(F)(F)F)O2)c1 [Compound 19, 2-(3,5-difluorophenyl)-6-(pentafluoroethyl)-4,4-bis(trifluoromethyl)-4H-1,3,5-oxadiazine] | 100 |  | 100 | 100 | 100 | 100 |  |  |  |  |  | 100 | 
FC(F)(F)C(F)(F)C1=NC(C(F)(F)F)(C(F)(F)F)N=C(c2cc(Cl)cc(Cl)c2)O1 [Compound 21, 2-(3,5-dichlorophenyl)-6-(pentafluoroethyl)-4,4-bis(trifluoromethyl)-4H-1,3,5-oxadiazine] | 100 | 100 | 100 | 100 | 100 | 100 |  |  |  |  |  |  | 
Cc1cccc(C2=NC(C(F)(F)F)(C(F)(F)F)N=C(C(F)(F)C(F)(F)F)O2)c1 [Compound 22, 2-(3-methylphenyl)-6-(pentafluoroethyl)-4,4-bis(trifluoromethyl)-4H-1,3,5-oxadiazine] | 100 | 100 | 0 | 0 | 0 | 50 |  |  |  |  |  |  | 
FC(F)(F)C(F)(F)C(F)(F)C1=NC(C(F)(F)F)(C(F)(F)F)N=C(c2ccc(Br)cc2)O1 [Compound 27, 2-(4-bromophenyl)-6-(heptafluoropropyl)-4,4-bis(trifluoromethyl)-4H-1,3,5-oxadiazine] | 100 |  | 95 | 0 | 0 | 0 |  |  |  |  |  | 100 | 
Fc1ccc(C2=NC(C(F)(F)F)(C(F)(F)F)N=C(C(F)(F)C(F)(F)C(F)(F)F)O2)cc1 [Compound 28, 2-(4-fluorophenyl)-6-(heptafluoropropyl)-4,4-bis(trifluoromethyl)-4H-1,3,5-oxadiazine] | 100 |  | 100 | 0 | 0 | 0 |  |  |  |  |  | 100 | 
FC(F)(F)c1cccc(C2=NC(C(F)(F)F)(C(F)(F)F)N=C(C(F)(F)C(F)(F)C(F)(F)F)O2)c1 [Compound 29, 2-(heptafluoropropyl)-4,4-bis(trifluoromethyl)-6-{(3-trifluoromethyl)phenyl}-4H-1,3,5-oxadiazine] |  |  |  |  |  |  | 100 | 100 | 100 | 100 | 100 |  | 100
FC(F)(F)c1ccc(C2=NC(C(F)(F)F)(C(F)(F)F)N=C(C(F)(F)C(F)(F)C(F)(F)F)O2)cc1 [Compound 30, 2-(heptafluoropropyl)-4,4-bis(trifluoromethyl)-6-{(4-trifluoromethyl)phenyl}-4H-1,3,5-oxadiazine] |  |  |  |  |  |  | 100 | 100 | 100 | 100 | 100 |  | 100
